37 molecules from paper PMC9058255 (RSC Advances, 2020) can be followed below.

Like-named read-outs stand apart in the source and are kept apart here. Some results are limits rather than exact numbers.

In one data set the test system is MERS-S pseudovirus. As to the kind of experiment: organism not typed. Type of data set: cell-based, MERS-CoV. The conditions noted are these: for IC50: read-out: IC50: 50% inhibitory concentration.
A further data set can be described thus: in vitro. The conditions noted are these: human.

Take `O=C(O)c1ccc2nc(-c3ccc(/N=C/c4ccsc4)cc3)sc2c1` [Compound 4m, (E)-2-(4-((Thiophen-3-ylmethylene)amino)phenyl)benzo[d]thiazole-6-carboxylic acid]: the IC50 in the data set with MERS-S pseudovirus (Huh-7, 48 h) was more than 10 µM.

Turning to `Fc1ccc2sc(-c3ccc(/N=C/c4ccsc4)cc3)nc2c1` [Compound 4g, (E)-N-(4-(5-Fluorobenzo[d]thiazol-2-yl)phenyl)-1-(thiophen-3-yl)methanimine], in the data set on MERS-S pseudovirus (Huh-7, 48 h), the IC50 is 1 ± 0.07 µM.

Regarding `C(=N\c1ccc(-c2nc3ccccc3s2)cc1)/c1cccs1` [Compound 1q, (E)-N-(4-(Benzo[d]thiazol-2-yl)phenyl)-1-(thiophen-2-yl)methanimine], in the data set with MERS-S pseudovirus, the “inhibitory activity against MERS-S pseudovirus (in words)” value (from here on “inhibitory activity”) was “modest inhibitory capacity”. Besides, the IC50 with MERS-S pseudovirus (Huh-7, 48 h) was 6.52 ± 1.14 µM. Also, in “in vitro”, the CC50 is more than 100 µM.

Consider `CNC(=O)c1ccc2nc(-c3ccc(/N=C/c4ccsc4)cc3)sc2c1` [Compound 4n, (E)-N-Methyl-2-(4-((thiophen-3-ylmethylene)amino)phenyl)benzo[d]thiazole-6-carboxamide], for which the IC50 with MERS-S pseudovirus (Huh-7, 48 h) is more than 10 µM.

Turning to “(E)-N-(4-(Benzo[d]thiazol-2-yl)phenyl)-1-(3-methoxyphenyl)methanimine [Compound 1j]”, the IC50 with MERS-S pseudovirus came out at 0.2 ± 0.05 µM. For the same molecule, the CC50 in the data set with Huh-7 cells was more than 100 µM.

With `C(=N\c1ccc(-c2nc3ccccc3s2)cc1)/c1cscn1` [Compound 1s, (E)-N-(4-(Benzo[d]thiazol-2-yl)phenyl)-1-(thiazol-4-yl)methanimine], the IC50 with MERS-S pseudovirus (Huh-7, 48 h) is more than 10 µM. This molecule gave a CC50 in “in vitro” of more than 100 µM.

As for `C(=N\c1ccc(-c2cn3ccccc3n2)cc1)/c1ccsc1` [Compound 4d, (E)-N-(4-(Imidazo[1,2-a]pyridin-2-yl)phenyl)-1-(thiophen-3-yl)methanimine], in the data set with MERS-S pseudovirus (Huh-7, 48 h), the IC50 is more than 10 µM.

Take `CNc1ccc2nc(-c3ccc(/N=C/c4ccsc4)cc3)sc2c1` [Compound 4k, (E)-N-Methyl-2-(4-((thiophen-3-ylmethylene)amino)phenyl)benzo[d]thiazol-6-amine]: the IC50 in the data set with MERS-S pseudovirus (Huh-7, 48 h) was more than 10 µM.

As to `COc1cccc(CNc2ccc(-c3nc4ccccc4s3)cc2)c1O` [Compound 1f, 2-(((4-(benzo[d]thiazol-2-yl)phenyl)amino)methyl)-6-methoxy-phenol], in the data set with MERS-S pseudovirus, the “inhibitory activity” value is listed as “inhibitory activity was markedly reduced”. For the same molecule, the IC50 in the data set with MERS-S pseudovirus (Huh-7, 48 h) is more than 10 µM.

`C(=N\c1ccc(-c2nc3ccccc3s2)cc1)/c1ccoc1` [Compound 1n, (E)-N-(4-(Benzo[d]thiazol-2-yl)phenyl)-1-(furan-3-yl)methanimine]: the IC50 with MERS-S pseudovirus (Huh-7, 48 h) is more than 10 µM. The CC50 in the data set “in vitro” was more than 100 µM.

In the case of `O=[N+]([O-])c1cc(/C=N/c2ccc(-c3nc4ccccc4s3)cc2)cs1` [Compound 1r, (E)-N-(4-(Benzo[d]thiazol-2-yl)phenyl)-1-(5-nitrothiophen-3-yl)methanimine], the IC50 in the data set with MERS-S pseudovirus (Huh-7, 48 h) was determined as 0.62 ± 0.31 µM. In “in vitro”, this molecule returned a CC50 of more than 100 µM.

For `C(=N\c1ccc(-c2cn3c(n2)sc2ccccc23)cc1)/c1ccsc1` [Compound 4c, (E)-N-(4-(Benzo[d]imidazo[2,1-b]thiazol-2-yl)phenyl)-1-(thiophen-3-yl) methanimine], the IC50 in the data set with MERS-S pseudovirus (Huh-7, 48 h) was more than 10 µM.

Consider `Fc1cccc2sc(-c3ccc(/N=C/c4ccsc4)cc3)nc12` [Compound 4h, (E)-N-(4-(4-Fluorobenzo[d]thiazol-2-yl)phenyl)-1-(thiophen-3-yl)methanimine], for which, in the data set with MERS-S pseudovirus (Huh-7, 48 h), the IC50 came out at 0.53 ± 0.02 µM.

For `C(=N\c1ccc(-c2nc3ccccc3s2)cc1)/c1ccsc1` [Compound 1o, (E)-N-(4-(Benzo[d]thiazol-2-yl)phenyl)-1-(thiophen-3-yl)methanimine], the IC50 in the data set on MERS-S pseudovirus (Huh-7, 48 h) turned out to be 0.14 ± 0.06 µM. In “in vitro”, this molecule returned a CC50 of more than 100 µM.

Turning to `COc1cccc(/C=N/c2nc3ccccc3s2)c1O` [Compound 1e, (E)-2-((benzo[d]thiazol-2-ylimino)methyl)-6-methoxyphenol], in the data set with MERS-S pseudovirus, the “inhibitory activity” value is “lost inhibitory activity”. Besides, in the data set on MERS-S pseudovirus (Huh-7, 48 h), the IC50 was more than 10 µM.

With `C(=N\c1ccc(Sc2nc3ccccc3s2)cc1)/c1ccsc1` [Compound 4p, (E)-N-(4-(Benzo[d]thiazol-2-ylthio)phenyl)-1-(thiophen-3-yl)methanimine], the “inhibitory activity” value with MERS-S pseudovirus is “inhibitory activity was abolished”. In addition, the IC50 with MERS-S pseudovirus (Huh-7, 48 h) was more than 10 µM.

Take `Cc1ccc2nc(-c3ccc(/N=C/c4ccsc4)cc3)sc2c1` [Compound 4j, (E)-N-(4-(6-Methylbenzo[d]thiazol-2-yl)phenyl)-1-(thiophen-3-yl)methanimine]: the IC50 with MERS-S pseudovirus (Huh-7, 48 h) is more than 10 µM.

For the molecule `C(=N\c1ccc(Oc2nc3ccccc3s2)cc1)/c1ccsc1` [Compound 4o, (E)-N-(4-(Benzo[d]thiazol-2-yloxy)phenyl)-1-(thiophen-3-yl)methanimine], in the data set on MERS-S pseudovirus, the “inhibitory activity” value is reported as “inhibitory activity was abolished”. In addition, the IC50 in the data set on MERS-S pseudovirus (Huh-7, 48 h) was more than 10 µM.

As to `Fc1cccc2nc(-c3ccc(/N=C/c4ccsc4)cc3)sc12` [Compound 4e, (E)-N-(4-(7-Fluorobenzo[d]thiazol-2-yl)phenyl)-1-(thiophen-3-yl)methanimine], the IC50 in the data set with MERS-S pseudovirus (Huh-7, 48 h) stood at 1.67 ± 0.3 µM.

For `COc1cccc(/C=N/c2ccc(-c3nc4ccccc4s3)nc2)c1O` [Compound 1d, (E)-2-(((6-(Benzo[d]thiazol-2-yl)pyridin-3-yl)imino)methyl)-6-methoxyphenol], the “inhibitory activity” value with MERS-S pseudovirus is “Modest inhibitory activity”. In the data set on MERS-S pseudovirus (Huh-7, 48 h), the IC50 came out at 2.7 ± 0.19 µM.

As for `COc1ccc(/C=N/c2ccc(-c3nc4ccccc4s3)cc2)cc1O` [Compound 1l, (E)-5-(((4-(Benzo[d]thiazol-2-yl)phenyl)imino)methyl)-2-methoxyphenol], the IC50 in the data set on MERS-S pseudovirus (Huh-7, 48 h) came out at 0.22 ± 0.03 µM. Besides, the CC50 in “in vitro” was more than 100 µM.

On to `C(=N\c1ccc(-c2nc3ccccc3s2)cc1)/c1cncs1` [Compound 1t, (E)-N-(4-(Benzo[d]thiazol-2-yl)phenyl)-1-(thiazol-5-yl)methanimine], for which the IC50 with MERS-S pseudovirus (Huh-7, 48 h) is 8.8 ± 0.01 µM. The molecule also registered a CC50 in the data set “in vitro” of more than 100 µM.

`COc1cccc(/C=N/c2ccc(-c3nc4ccccc4[nH]3)cc2)c1O` [Compound 1c, (E)-2-(((4-(1H-Benzo[d]imidazol-2-yl)phenyl)imino)methyl)-6-methoxyphenol]: the “inhibitory activity” value in the data set on MERS-S pseudovirus is listed as “lost inhibitory activity”. Besides, the IC50 in the data set with MERS-S pseudovirus (Huh-7, 48 h) was more than 10 µM.

For the molecule `CN(C)c1ccc2nc(-c3ccc(/N=C/c4ccsc4)cc3)sc2c1` [Compound 4l, (E)-N,N-Dimethyl-2-(4-((thiophen-3-ylmethylene)amino)phenyl)benzo[d]thiazol-6-amine], in the data set on MERS-S pseudovirus (Huh-7, 48 h), the IC50 is more than 10 µM.

Take `C(=N\c1ccc(-c2nc3ccccc3s2)cc1)/c1ccccc1` [Compound 1h, (E)-N-(4-(Benzo[d]thiazol-2-yl)phenyl)-1-phenylmethanimine]: the IC50 with MERS-S pseudovirus (Huh-7, 48 h) turned out to be 0.57 ± 0.11 µM. In “in vitro”, this molecule came in with a CC50 of more than 100 µM.

For `COc1cccc(C(=O)Nc2ccc(-c3nc4ccccc4s3)cc2)c1O` [Compound 1g, N-(4-(benzo[d]thiazol-2-yl)phenyl)-2-hydroxy-3-methoxybenzamide], the “inhibitory activity” value with MERS-S pseudovirus is recorded as “inhibitory activity was markedly reduced”. In the data set with MERS-S pseudovirus (Huh-7, 48 h), the IC50 is more than 10 µM.

For the molecule `COc1cccc(/C=N/c2ccc(-c3nc4ccccc4s3)cc2)c1O` [Compound 1a, (E)-2-(((4-(Benzo[d]thiazol-2-yl)phenyl)imino)methyl)-6-methoxyphenol], in the data set with MERS-S pseudovirus, the “inhibitory activity” value was “modest entry inhibitor” and the IC50 came out at 0.73 ± 0.66 µM.

As for `COc1cccc(/C=N/c2ccc(-c3nc4ccccc4o3)cc2)c1O` [Compound 1b, (E)-2-(((4-(Benzo[d]oxazol-2-yl)phenyl)imino)methyl)-6-methoxyphenol], the “inhibitory activity” value with MERS-S pseudovirus is reported as “lost inhibitory activity”. Further, the IC50 in the data set on MERS-S pseudovirus (Huh-7, 48 h) was more than 10 µM.

With `C(=N\c1ccc(-c2nc3ccccc3s2)cc1)/c1cccnc1` [Compound 1m, (E)-N-(4-(Benzo[d]thiazol-2-yl)phenyl)-1-(pyridin-3-yl)methanimine], the IC50 with MERS-S pseudovirus (Huh-7, 48 h) amounted to 0.34 ± 0.24 µM. Also, the CC50 in the data set “in vitro” is more than 100 µM.

`Fc1ccc2nc(-c3ccc(/N=C/c4ccsc4)cc3)sc2c1` [Compound 4f, (E)-N-(4-(6-Fluorobenzo[d]thiazol-2-yl)phenyl)-1-(thiophen-3-yl)methanimine]: the IC50 in the data set on MERS-S pseudovirus (Huh-7, 48 h) came out at 0.09 ± 0.01 µM.

For the molecule `C(=N\c1ccc(-c2nc3ccccc3s2)cc1)/c1cc[nH]c1` [Compound 1p, (E)-N-(4-(Benzo[d]thiazol-2-yl)phenyl)-1-(1H-pyrrol-3-yl)methanimine], the IC50 with MERS-S pseudovirus (Huh-7, 48 h) was more than 10 µM. The CC50 in the data set “in vitro” is more than 100 µM.

For the molecule `C(=N\c1ccc(-c2nc3c(s2)CCCC3)cc1)/c1ccsc1` [Compound 4b, (E)-N-(4-(4,5,6,7-Tetrahydrobenzo[d]thiazol-2-yl)phenyl)-1-(thiophen-3-yl) methanimine], in the data set with MERS-S pseudovirus (Huh-7, 48 h), the IC50 was more than 10 µM.

As for `Oc1ccccc1/C=N/c1ccc(-c2nc3ccccc3s2)cc1` [Compound 1i, (E)-2-(((4-(Benzo[d]thiazol-2-yl)phenyl)imino)methyl)phenol], in the data set with MERS-S pseudovirus (Huh-7, 48 h), the IC50 worked out at 0.52 ± 0.03 µM. The molecule further showed a CC50 in the data set “in vitro” of more than 100 µM.

As to `C(=N\c1ccc(-c2nc3ncccc3s2)cc1)/c1ccsc1` [Compound 4a, (E)-N-(4-(Thiazolo[4,5-b]pyridin-2-yl)phenyl)-1-(thiophen-3-yl)methanimine], the IC50 in the data set on MERS-S pseudovirus (Huh-7, 48 h) was more than 10 µM.

Regarding `Oc1cccc(/C=N/c2ccc(-c3nc4ccccc4s3)cc2)c1O` [Compound 1k, (E)-3-(((4-(Benzo[d]thiazol-2-yl)phenyl)imino)methyl)benzene-1,2-diol], the IC50 in the data set on MERS-S pseudovirus (Huh-7, 48 h) is 0.4 ± 0.01 µM. In the data set “in vitro”, this molecule gave a CC50 of more than 100 µM.

As to `C(=N\c1ccc(-c2nc3ccccc3s2)cc1)/c1nccs1` [Compound 1u, (E)-N-(4-(Benzo[d]thiazol-2-yl)phenyl)-1-(thiazol-2-yl)methanimine], the IC50 in the data set with MERS-S pseudovirus (Huh-7, 48 h) is more than 10 µM. The same molecule gave a CC50 in “in vitro” of more than 100 µM.

For the molecule `CCOc1ccc2nc(-c3ccc(/N=C/c4ccsc4)cc3)sc2c1` [Compound 4i, (E)-N-(4-(6-Ethoxybenzo[d]thiazol-2-yl)phenyl)-1-(thiophen-3-yl)methanimine], the IC50 in the data set with MERS-S pseudovirus (Huh-7, 48 h) is more than 10 µM.
